Source: patent US9901646B2, “Methods for induction of antigen-specific immune tolerance” (École Polytechnique Fédérale de Lausanne (EPFL), priority 2010, dated 2018)
Blank lines part the entries; values can stand above or below the molecule they belong to. Where no end group is shown, it is not given here. 8‑arm PEG = 8-arm polyethylene glycol (PEG) dendrimer, conjugated via pyridyldisulfide groups to cysteine thiols

Assays:
circulating erythrocytes = experiment: 8-arm PEG constructs binding to circulating erythrocytes after intravenous injection, flow cytometry; assay type: in vivo, mouse; details: flow cytometry
Source text: FIG. 17 presents experimental results depicting erythrocyte cell-surface half-life of 8-arm PEG-ERY1 (filled circles) and 8-arm PEG-MIS (empty boxes), determined by flow cytometry.

[1] = tested on: human erythrocytes (type A and B); experiment: Binding of bacteria displaying peptide to cells, flow cytometry; details: peptide displayed on bacteria, 1 h at 4° C.
Experimental: Method: To characterize specificity, individual sequenced clones were analyzed using cytometry for binding toward human erythrocytes (type A and B), mouse erythrocytes, HEK293T cells and HUVECs. For binding assays, 10^6 mammalian cells were scanned on an AccuriA6 after co-incubation with 5×10^7 bacteria for 1 h at 4° C. followed by three washes in HFS (5% HSA, 2% FBS in PBS). The percentage of cells with green bacteria bound was calculated using FLOWJO Software.

human erythrocytes = experiment: Erythrocyte binding of APC-peptide conjugates by flow cytometry; details: 1 μM APC-peptide conjugate, 37 C, 45 min
Experimental: Peptides were ordered and custom-synthesized via standard fmoc solid-phase peptide synthesis from PolyPeptide Group (Strasbourg, France). 10 equivalents of peptide dissolved in 3 M guanidine-HCl were added to 2 mg/mL maleimide-activated APC (InnovaBiosciences, Cambridge, UK) in PBS. Following a 4 h incubation at 4° C., the reaction was desalted on a 2 mL ZEBA Desalting Column (Thermo Scientific) and stored at 4° C.
Freshly isolated human blood was dissolved 100-fold into PBS supplemented with 20 mg/mL BSA. 5×10^5 erythrocytes were added to 150 μL of 1 μM APC-peptide conjugate and incubated at 37 C for 45 min. Cells were washed extensively in PBS+20 mg/mL BSA, and analyzed for APC fluorescence on a CyAn ADP Flow cytometer (Beckman Coulter).

glycophorin-A (GYPA) = molecular target: T1, glycophorin-A (GYPA) (Mus musculus, UniProt P14220); experiment: Affinity pull-down with biotinylated ERY1 peptide and photoactivatable crosslinker, Western blot; assay type: binding; details: whole erythrocytes, UV crosslinking, streptavidin and anti-GYPA Western blot
T1 construct: GYPA is naturally expressed and presented as part of a complex comprised of several membrane and cytoskeletal proteins; endogenous in cells; host or cells: whole mouse erythrocytes
Experimental: Method: The ERY1 (H2N-WMVLPWLPGTLDGGSGCRG-CONH2) (SEQ ID NO:19) and mismatch (H2N-PLLTVGMDLWPWGGSGCRG-CONH2) (SEQ ID NO:20) peptides were synthesized using standard solid-phase f-moc chemistry on TGR resin. The peptide was cleaved from the resin in 95% tri-fluoroacetic acid, 2.5% ethanedithiol, 2.5% water, and precipitated in ice-cold diethyl ether. Purification was conducted on a Waters preparative HPLC-MS using a C18 reverse phase column.
In brief, peptides were solubilized in PBS/DMF and reacted with 1.05 equivalents of Mts-atf-biotin overnight at 4° C. Following clarification of the reaction by centrifugation, biotinylated peptide was incubated with erythrocytes at in PBSA-50 for 1 h at 37° C., cells were washed twice in fresh PBS, and were UV irradiated at 365 nm for 8 min at room temperature. Cells were lysed by sonication and the lysate was purified using streptavidin-coated magnetic beads (Invitrogen). The eluate was run on an SDS-PAGE and transferred to a PVDF membrane, and immunoblotted with streptavidin-HRP (R&D Systems) or anti-mouse GYPA.

[2] = mouse, in vivo, iv, 150 ug
Experimental: The Swiss Vaud Veterinary Office previously approved all animal procedures. While under anesthesia with ketamine/xylasine, the mouse tail was warmed in 42° C. water and 150 μg of protein was injected in a 100 μL volume directly into the tail vein. Care was taken to ensure mice were kept at 37° C. while under anesthesia. Blood was drawn by a small scalpel incision on the base of the tail, and diluted 10-fold in PBSA-5, 10 mM EDTA, and stored at −20° C. until further analysis. Blood samples were analyzed for MBP concentration by sandwich ELISA. In brief, monoclonal mouse anti-MBP was used as the capture antibody, polyclonal rabbit anti-MBP as the primary antibody, and goat anti-rabbit-HRP as the secondary antibody. The data were analyzed in PRISM4 using standard pharmacokinetic compartmental analysis, using Eq. 1 and Eq. 2 A=A0e^−Kt Equation 1: Standard one-compartment model
where A is the amount of free drug in the body at time t and A0 is the initial amount of drug at time zero. A=ae^−at+be^−βt Equation 2: Standard two-compartment model
where A is the amount of free drug in the central compartment at time t.

[3] = tested on: mouse erythrocytes (glycophorin-A on the erythrocyte surface); experiment: Binding of OVA conjugates to erythrocytes in vitro, flow cytometry, equilibrium binding
Source text: To obtain strong and specific biophysical binding of an antigen to erythrocytes, we used a synthetic 12 amino acid peptide (ERY1) that we discovered by phage display to specifically bind to mouse glycophorin-A (Kontos and Hubbell, 2010). In this investigation, the model antigen OVA was used with a transgenic mouse strain (OT-I) whose CD8^+ T cell population expresses the T cell receptor specific for the MHC I immunodominant OVA peptide SIINFEKL (SEQ ID NO:3). The ERY1 peptide was chemically conjugated to OVA to create an OVA variant (ERY1-OVA) that binds mouse erythrocytes with high affinity and specificity (FIG. 8a). High-resolution confocal microscopy confirmed earlier observations concerning ERY1 binding (Kontos and Hubbell, 2010), namely localization to the cell membrane equatorial periphery, with no intracellular translocation of the ERY1-conjugated protein.

erythrocytes (CD45−) = experiment: In vivo binding to circulating erythrocytes after intravenous administration; design: species or system mouse
Experimental: 150 μg of ERY1-OVA or OVA in 0.9% saline (B. Braun) in a volume of 100 μL was injected intravenously into the tail of 8-12 week old female C57BL/6 mice while under anesthesia with isoflurane. […] At predetermined time points, 5 μL of blood was taken from a small incision on the tail, diluted 100-fold into 10 mM EDTA in PBS, washed three times with PBS with 10 mg/mL BSA, and analyzed for OVA content by flow cytometry and ELISA. OVA was quantified by sandwich ELISA, using a mouse monoclonal anti-OVA antibody (Sigma) for capture, a polyclonal rabbit anti-OVA antibody (AbD SEROTEC) for detection, a goat anti-rabbit-IgG-HRP antibody (BioRad) for final detection, followed by TMB substrate (GE Life Sciences). Hematological characterization was performed on an ADVIVA 2120 Hematology System (Siemens). Erythrocyte-bound ERY1-GST was detected by incubating labeled cells with goat anti-GST (GE Healthcare Life Sciences), followed by incubation with AlexaFluor488 donkey anti-goat (Invitrogen), and analyzed by flow cytometry. For biodistribution studies, 20 μg of ERY1-APC or MIS-APC was injected intravenously into the tail vein of 8-12 week old female C57BL/6 mice as described above. Mice were sacrificed at predetermined time points, and the spleen, blood, and liver were removed. […]

- binding to circulating erythrocytes upon intravenous injection (circulating erythrocytes): not
Molecule: 8-arm PEG-MIS: 8-arm PEG conjugate harboring the non-specific MIS peptide (H-PLLTVGMDLWPWGGSGC(8‑arm PEG)RG-NH2; also: 8-arm PEG conjugate (multivalent), linkage to PEG not given here) [reference compound]

- binding to human erythrocytes as conjugates of APC (human erythrocytes): bound to human erythrocytes
Molecule: GQSGHWHCQGPFANWVGSSGGS (Erythrocyte Binding Peptide) [ERY123]
- binding to human erythrocytes, specificity as compared to 293T cells and HUVECs [1]: bound specifically to human erythrocytes

- binding to human erythrocytes as conjugates of APC (human erythrocytes): bound to human erythrocytes
Molecule: GQSGQFCTVIYNTYTCVPSSGSSGGS (Erythrocyte Binding Peptide) [ERY141]
- binding to human erythrocytes, specificity as compared to 293T cells and HUVECs [1]: bound specifically to human erythrocytes

- binding to human erythrocytes as conjugates of APC (human erythrocytes): bound to human erythrocytes
Molecule: GQSGQTYFCTPTLLGQYCSVGSSGGS (Erythrocyte Binding Peptide) [ERY64]
- binding to human erythrocytes, specificity as compared to 293T cells and HUVECs [1]: bound specifically to human erythrocytes

- binding to erythrocytes (flow cytometry) [3]: did not display any measureable affinity
B1: OVA conjugated with only the crosslinking molecule: OVA carrying only the SMCC crosslinker (conjugate)
chain: GSIGAASMEFCFDVFKELKVHHANENIFYCPIAIMSALAMVYLGAKDSTRTQINKVVRFDKLPGFGDSIEAQCGTSVNVHSSLRDILNQITKPNDVYSFSLASRLYAEERYPILPEYLQCVKELYRGGLEPINFQTAADQARELINSWVESQTNGIIRNVLQPSSVDSQTAMVLVNAIVFKGLWEKAFKDEDTQAMPFRVTEQESKPVQMMYQIGLFRVASMASEKMKILELPFASGTMSMLVLLPDEVSGLEQLESIINFEKLTEWTSSNVMEERKIKVYLPRMKMEEKYNLTSVLMAMGITDVFSSSANLSGISSAESLKISQAVHAAHAEINEAGREVVGSAEAGVDAASVSEEFRADHPFLFCIKHIATNAVLFFGRCVSP

Further lines, the molecule ahead of its results:

Molecule: GQSGQPNSRWIYMTPLSPGIYRGSSGGS (Erythrocyte Binding Peptide) [ERY19]
- binding to human erythrocytes, specificity as compared to 293T cells and HUVECs [1]: bound specifically to human erythrocytes

Molecule: GQSGQSVWYSSRGNPLRCTGGSSGGS (Erythrocyte Binding Peptide) [ERY162]
- binding to human erythrocytes, specificity as compared to 293T cells and HUVECs [1]: bound specifically to human erythrocytes

Molecule: GQSGQYICTSAGFGEYCFIDGSSGGS (Erythrocyte Binding Peptide) [ERY59]
- binding to human erythrocytes, specificity as compared to 293T cells and HUVECs [1]: bound specifically to human erythrocytes

Molecule: PLLTVGMDLWPW (Control peptide) [mismatch peptide, same amino acid residues as ERY1, scrambled, reference compound]
- molecular target on the erythrocyte membrane / conjugation to erythrocyte proteins (glycophorin-A (GYPA)): failed to conjugate to any erythrocyte proteins

Molecule: WMVLPWLPGTLD (not fully specified (C-terminus)) [ERY1, synthesized as H2N-…-CONH2]
- molecular target on the erythrocyte membrane / conjugation to erythrocyte proteins (glycophorin-A (GYPA)): glycophorin-A (GYPA)

Molecule: maltose binding protein [wild-type MBP]
- half-life [2]: 55.2 min
- α half life [2]: 24.6 min
- β half life [2]: 66.6 min

B2: ovalbumin (protein)
chain: GSIGAASMEFCFDVFKELKVHHANENIFYCPIAIMSALAMVYLGAKDSTRTQINKVVRFDKLPGFGDSIEAQCGTSVNVHSSLRDILNQITKPNDVYSFSLASRLYAEERYPILPEYLQCVKELYRGGLEPINFQTAADQARELINSWVESQTNGIIRNVLQPSSVDSQTAMVLVNAIVFKGLWEKAFKDEDTQAMPFRVTEQESKPVQMMYQIGLFRVASMASEKMKILELPFASGTMSMLVLLPDEVSGLEQLESIINFEKLTEWTSSNVMEERKIKVYLPRMKMEEKYNLTSVLMAMGITDVFSSSANLSGISSAESLKISQAVHAAHAEINEAGREVVGSAEAGVDAASVSEEFRADHPFLFCIKHIATNAVLFFGRCVSP
notes: model antigen
- binding to circulating eryptotic (annexin-V+) and healthy (annexin-V−) erythrocytes (erythrocytes (CD45−)): nonbinding
